Assay [1] deals with T1, human FPR2 (Homo sapiens, UniProt P25090).
T1 sequence (P25090 1-351): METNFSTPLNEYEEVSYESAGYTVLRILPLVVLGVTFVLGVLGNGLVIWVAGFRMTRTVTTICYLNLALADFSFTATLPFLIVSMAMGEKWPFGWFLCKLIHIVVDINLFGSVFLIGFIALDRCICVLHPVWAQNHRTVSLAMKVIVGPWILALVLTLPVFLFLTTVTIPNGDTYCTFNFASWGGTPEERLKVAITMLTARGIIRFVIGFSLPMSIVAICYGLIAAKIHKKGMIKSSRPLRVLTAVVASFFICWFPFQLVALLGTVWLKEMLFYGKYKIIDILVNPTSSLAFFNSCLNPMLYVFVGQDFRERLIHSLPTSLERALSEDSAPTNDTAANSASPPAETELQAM
The assay can be described thus: FPR2 cyclic adenosine monophosphate (cAMP) assay. The note with it: CHO cells overexpressing human FPR2; forskolin 5 μM; inhibition of cAMP production; HTRF; read-out: hFPR2 cAMP2 EC50. In kind it is cell-based. A digest of the protocol: (§1)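 CHO cells overexpressing human FPR1 (4,000/well) or FPR2 (2,000/well) were incubated 30 min at room temperature with compound (0.020 nM to 100 μM, 1% DMSO), IBMX 200 μM, and forskolin at 10 μM (FPR1) or 5 μM (FPR2), all final. HTRF cAMP read-out; inhibition fitted by 4-parameter logistic equation.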
Background: cAMP levels reflect the balance of adenylyl cyclase and phosphodiesterase activity.

For assay [2], the target named is T2, human FPR1 (Homo sapiens, UniProt P21462).
T2 sequence (P21462 1-350): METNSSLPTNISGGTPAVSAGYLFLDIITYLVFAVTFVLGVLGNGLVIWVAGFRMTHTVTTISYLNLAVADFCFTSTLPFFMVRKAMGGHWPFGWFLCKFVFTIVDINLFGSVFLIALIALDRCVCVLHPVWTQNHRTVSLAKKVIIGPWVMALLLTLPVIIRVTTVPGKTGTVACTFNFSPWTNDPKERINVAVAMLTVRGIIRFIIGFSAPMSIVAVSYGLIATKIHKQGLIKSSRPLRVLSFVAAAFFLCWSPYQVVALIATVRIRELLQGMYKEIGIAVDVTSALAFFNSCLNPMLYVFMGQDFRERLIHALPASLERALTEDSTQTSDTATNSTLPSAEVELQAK
Nature of the assay: FPR1 cyclic adenosine monophosphate (cAMP) assay. The conditions noted are these: CHO cells overexpressing human FPR1; forskolin 10 μM; inhibition of cAMP production; HTRF; read-out: hFPR1 cAMP2 EC50. In kind it is cell-based. The essentials: as §1

As a reminder, the EC50 is the concentration that produces a half-maximal response. With `COc1cc(F)c(-c2c(NC(=O)c3ccc(OC(F)F)cc3)c(=O)n(-c3cc(C)cc(C)n3)n2C)c(F)c1` [Example 65, N-[5-(2,6-difluoro-4-methoxyphenyl)-2-(4,6-dimethylpyridin-2-yl)-1-methyl-3-oxo-2,3-dihydro-1H-pyrazol-4-yl]-4-(difluoromethoxy)benzamide], the values for the EC50 in assay [1] and in assay [2] were 8 nM and over 10000 nM, respectively.

With `COc1cc(F)c(-c2c(NC(=O)c3ccc(OC(F)(F)F)cc3)c(=O)n(-c3cc(C)cc(C)n3)n2C)c(F)c1` [Example 66, N-[5-(2,6-difluoro-4-methoxyphenyl)-2-(4,6-dimethylpyridin-2-yl)-1-methyl-3-oxo-2,3-dihydro-1H-pyrazol-4-yl]-4-(trifluoromethoxy)benzamide], the EC50 in assay [1] came out at 8 nM; in assay [2], 2500 nM.

With `COc1cc(F)c(-c2c(NC(=O)c3ccc(OC(F)F)cc3)c(=O)n(-c3cccc(C(F)F)n3)n2C)c(F)c1` [Example 67, N-[5-(2,6-difluoro-4-methoxyphenyl)-2-[6-(difluoromethyl)pyridin-2-yl]-1-methyl-3-oxo-2,3-dihydro-1H-pyrazol-4-yl]-4-(difluoromethoxy)benzamide], the EC50 was 9 nM in assay [1] and 3400 nM in assay [2].

As for `COc1cc(F)c(-c2c(NC(=O)c3ccc(OC(F)(F)F)cc3)c(=O)n(-c3cccc(C(F)F)n3)n2C)c(F)c1` [Example 68, N-[5-(2,6-difluoro-4-methoxyphenyl)-2-[6-(difluoromethyl)pyridin-2-yl]-1-methyl-3-oxo-2,3-dihydro-1H-pyrazol-4-yl]-4-(trifluoromethoxy)benzamide], the values for the EC50 in assay [1] and in assay [2] were 8 nM and 1000 nM, respectively.

On to `COc1cc(F)c(-c2c(NC(=O)c3ccc(OC(F)F)cc3)c(=O)n(-c3cccc(-n4ccc(C)n4)n3)n2C)c(F)c1` [Example 69, N-[5-(2,6-difluoro-4-methoxyphenyl)-1-methyl-2-[6-(3-methyl-1H-pyrazol-1-yl)pyridin-2-yl]-3-oxo-2,3-dihydro-1H-pyrazol-4-yl]-4-(difluoromethoxy)benzamide], for which the EC50 in assay [1] and in assay [2] was 5 nM in each case.

On to `COc1cc(F)c(-c2c(NC(=O)c3ccc(OC(F)(F)F)cc3)c(=O)n(-c3cccc(-n4ccc(C)n4)n3)n2C)c(F)c1` [Example 70, N-[5-(2,6-difluoro-4-methoxyphenyl)-1-methyl-2-[6-(3-methyl-1H-pyrazol-1-yl)pyridin-2-yl]-3-oxo-2,3-dihydro-1H-pyrazol-4-yl]-4-(trifluoromethoxy)benzamide], for which the figures for the EC50 in assay [1] and in assay [2] were 3 nM and 5 nM, respectively.

On to `COc1cc(F)c(-c2c(NC(=O)c3ccc(OC(F)F)cc3)c(=O)n(-c3cncc(OC)n3)n2C)c(F)c1` [Example 71, N-[5-(2,6-difluoro-4-methoxyphenyl)-2-(6-methoxypyrazin-2-yl)-1-methyl-3-oxo-2,3-dihydro-1H-pyrazol-4-yl]-4-(difluoromethoxy)benzamide], for which the EC50 in assay [1] worked out at 20 nM; in assay [2], 2600 nM.

For `COc1cc(F)c(-c2c(NC(=O)c3ccc(OC(F)F)cc3)c(=O)n(-c3cccc(-c4ccccc4)n3)n2C)c(F)c1` [Example 72, N-[5-(2,6-difluoro-4-methoxyphenyl)-1-methyl-3-oxo-2-(6-phenylpyridin-2-yl)-2,3-dihydro-1H-pyrazol-4-yl]-4-(difluoromethoxy)benzamide], the EC50 in assay [1] came out at 2.7 nM; in assay [2], 180 nM.

For `COc1cc(F)c(-c2c(NC(=O)c3ccc(OC(F)(F)F)cc3)c(=O)n(-c3cccc(-c4ccccc4)n3)n2C)c(F)c1` [Example 73, N-[5-(2,6-difluoro-4-methoxyphenyl)-1-methyl-3-oxo-2-(6-phenylpyridin-2-yl)-2,3-dihydro-1H-pyrazol-4-yl]-4-(trifluoromethoxy)benzamide], the figures for the EC50 in assay [1] and in assay [2] were 13 nM and 950 nM, respectively.

For the compound `COc1cc(F)c(-c2c(NC(=O)c3ccc(OC(F)(F)F)cc3)c(=O)n(-c3cccc(OC)n3)n2C)c(F)c1` [Example 74, N-[5-(2,6-difluoro-4-methoxyphenyl)-2-(6-methoxypyridin-2-yl)-1-methyl-3-oxo-2,3-dihydro-1H-pyrazol-4-yl]-4-(trifluoromethoxy)benzamide], the results for the EC50 in assay [1] and in assay [2] were 6 nM and 820 nM, respectively.

Consider `COc1cc(F)c(-c2c(NC(=O)c3ccc(OC(F)F)cc3)c(=O)n(-c3cccc(OC)n3)n2C)c(F)c1` [Example 75, N-[5-(2,6-difluoro-4-methoxyphenyl)-2-(6-methoxypyridin-2-yl)-1-methyl-3-oxo-2,3-dihydro-1H-pyrazol-4-yl]-4-(difluoromethoxy)benzamide], for which the figures for the EC50 in assay [1] and in assay [2] were 7 nM and 2300 nM, respectively.

Turning to `COc1cc(F)c(-c2c(NC(=O)c3ccc(OC(F)F)cc3)c(=O)n(-c3cc(OC)c(C)cn3)n2C)c(F)c1` [Example 77, N-[5-(2,6-difluoro-4-methoxyphenyl)-2-(4-methoxy-5-methylpyridin-2-yl)-1-methyl-3-oxo-2,3-dihydro-1H-pyrazol-4-yl]-4-(difluoromethoxy)benzamide], the EC50 in assay [1] worked out at 17 nM; in assay [2], 620 nM.

Take `CCOc1ccnc(-n2c(=O)c(NC(=O)c3ccc(OC(F)F)cc3)c(-c3c(F)cc(OC)cc3F)n2C)c1` [Example 78, N-[5-(2,6-difluoro-4-methoxyphenyl)-2-(4-ethoxypyridin-2-yl)-1-methyl-3-oxo-2,3-dihydro-1H-pyrazol-4-yl]-4-(difluoromethoxy)benzamide]: the EC50 in assay [1] worked out at 10 nM; in assay [2], 9500 nM.

In the case of `COc1cc(F)c(-c2c(NC(=O)c3ccc(OC(F)F)cc3)c(=O)n(-c3cccc(N4CCOCC4)n3)n2C)c(F)c1` [Example 79, N-[5-(2,6-difluoro-4-methoxyphenyl)-1-methyl-2-[6-(morpholin-4-yl)pyridin-2-yl]-3-oxo-2,3-dihydro-1H-pyrazol-4-yl]-4-(difluoromethoxy)benzamide], the values for the EC50 in assay [1] and in assay [2] were 10 nM and over 10000 nM, respectively.

For `COc1cc(F)c(-c2c(NC(=O)c3ccc(OC(F)F)cc3)c(=O)n(-c3cccc(N4CCCCC4)n3)n2C)c(F)c1` [Example 80, N-[5-(2,6-difluoro-4-methoxyphenyl)-1-methyl-3-oxo-2-[6-(piperidin-1-yl)pyridin-2-yl]-2,3-dihydro-1H-pyrazol-4-yl]-4-(difluoromethoxy)benzamide], the EC50 in assay [1] came out at 2 nM; in assay [2] it was 1300 nM.

Take `COc1cc(F)c(-c2c(NC(=O)c3ccc(OC(F)F)cc3)c(=O)n(-c3cccc(CO)n3)n2C)c(F)c1` [Example 81, N-[5-(2,6-difluoro-4-methoxyphenyl)-2-[6-(hydroxymethyl)pyridin-2-yl]-1-methyl-3-oxo-2,3-dihydro-1H-pyrazol-4-yl]-4-(difluoromethoxy)benzamide]: the EC50 was 17 nM in assay [1] and over 10000 nM in assay [2].

`COc1cc(F)c(-c2c(NC(=O)c3ccc(OC(F)F)cc3)c(=O)n(-c3cccc(N(C)C)n3)n2C)c(F)c1` [Example 82, N-[5-(2,6-difluoro-4-methoxyphenyl)-2-[6-(dimethylamino)pyridin-2-yl]-1-methy-3-oxo-2,3-dihydro-1H-pyrazol-4-yl]-4-(difluoromethoxy)benzamide]: the figures for the EC50 in assay [1] and in assay [2] were 2 nM and 520 nM, respectively.

(Values after patent US12577206B2 (BRISTOL-MYERS SQUIBB COMPANY, priority 2020, dated 2026).)
